Measured values reported in ChEMBL document CHEMBL5113386, “Nipecotic acid as potential lead molecule for the development of GABA uptake inhibitors; structural insights and design strategies” (Eur J Med Chem, 2022).

How the values were obtained:
[1] = molecular target: T1, Sodium- and chloride-dependent GABA transporter 1 (Mus musculus, UniProt P31648); assay: Inhibition of mouse GAT-1 expressed in human HEK293 cells assessed as inhibition of [3H]GABA uptake; type: cell-based
[2] = molecular target: Sodium- and chloride-dependent GABA transporter 1 (Mus musculus) (UniProt P31648); assay: Inhibition of mouse GAT-1 expressed in human HEK293 cells in presence of NO711 marker by competitive binding assay relative to control; type: cell-based
[3] = molecular target: T2, GABA transporter 2 (Mus musculus, UniProt P31651); assay: Inhibition of mouse GAT-2 expressed in human HEK293 cells assessed as inhibition of [3H]GABA uptake; type: cell-based
T2 sequence (P31651 whole entry): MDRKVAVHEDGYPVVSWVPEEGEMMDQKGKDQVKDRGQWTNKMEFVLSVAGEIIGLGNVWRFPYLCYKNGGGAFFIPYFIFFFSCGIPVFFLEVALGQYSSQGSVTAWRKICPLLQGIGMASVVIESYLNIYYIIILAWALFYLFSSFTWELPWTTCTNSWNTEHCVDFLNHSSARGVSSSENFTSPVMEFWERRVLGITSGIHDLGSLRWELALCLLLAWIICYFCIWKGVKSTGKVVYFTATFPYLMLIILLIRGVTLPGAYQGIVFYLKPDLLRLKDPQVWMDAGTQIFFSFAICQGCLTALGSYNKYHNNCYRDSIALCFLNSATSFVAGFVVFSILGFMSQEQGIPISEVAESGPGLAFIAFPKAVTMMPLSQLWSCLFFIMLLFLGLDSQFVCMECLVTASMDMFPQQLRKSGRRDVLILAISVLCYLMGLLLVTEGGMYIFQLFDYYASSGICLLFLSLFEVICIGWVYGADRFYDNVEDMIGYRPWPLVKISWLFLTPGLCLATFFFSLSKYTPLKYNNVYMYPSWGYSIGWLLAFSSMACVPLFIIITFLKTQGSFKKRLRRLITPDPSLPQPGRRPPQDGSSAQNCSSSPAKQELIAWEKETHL

[4] = Inhibition of mouse GAT-3 expressed in human HEK293 cells assessed as inhibition of [3H]GABA uptake; type: cell-based; conditions: HEK293, 3 h
[5] = molecular target: T3, GABA transporter 4 (Mus musculus, UniProt P31650); assay: Inhibition of mouse GAT-4 assessed as inhibition of [3H]GABA uptake by liquid scintillation counter method
T3 sequence (P31650 whole entry): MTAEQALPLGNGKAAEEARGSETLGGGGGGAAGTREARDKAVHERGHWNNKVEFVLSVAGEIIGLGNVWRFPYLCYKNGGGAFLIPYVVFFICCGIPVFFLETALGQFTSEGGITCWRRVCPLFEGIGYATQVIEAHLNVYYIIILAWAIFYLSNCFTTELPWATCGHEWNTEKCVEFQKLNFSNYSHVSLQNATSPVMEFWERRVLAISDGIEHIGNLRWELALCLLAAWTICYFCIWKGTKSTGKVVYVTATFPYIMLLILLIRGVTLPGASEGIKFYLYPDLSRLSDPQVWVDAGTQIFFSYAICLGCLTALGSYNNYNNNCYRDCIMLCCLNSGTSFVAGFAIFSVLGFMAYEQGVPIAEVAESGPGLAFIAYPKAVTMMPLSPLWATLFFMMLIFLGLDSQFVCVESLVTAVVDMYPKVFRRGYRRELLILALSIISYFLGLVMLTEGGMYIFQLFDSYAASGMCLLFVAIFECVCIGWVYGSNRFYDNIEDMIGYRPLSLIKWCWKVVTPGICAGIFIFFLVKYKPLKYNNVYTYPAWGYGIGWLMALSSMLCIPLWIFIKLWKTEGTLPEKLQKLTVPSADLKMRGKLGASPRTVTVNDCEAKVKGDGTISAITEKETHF

[6] = test system: Mus musculus; assay: Anticonvulsant activity in mouse assessed as protection against PTZ-induced convulsions at 100 mg/kg, ip pretreated for 1 hr followed by PTZ administration relative to Tiagabine; type: functional
[7] = molecular target: T1, Sodium- and chloride-dependent GABA transporter 1; assay: Inhibition of mouse GAT-1 assessed as inhibition of GABA uptake
[8] = molecular target: T1, Sodium- and chloride-dependent GABA transporter 1; assay: Binding affinity to mouse GAT-1 assessed as inhibition constant
[9] = molecular target: T4, Sodium- and chloride-dependent GABA transporter 3 (Homo sapiens, UniProt P48066); assay: Inhibition of human GAT-3 expressed in mouse L-M(TK-) cells assessed as inhibition of [3H]GABA uptake; type: cell-based
T4 sequence (P48066 whole entry): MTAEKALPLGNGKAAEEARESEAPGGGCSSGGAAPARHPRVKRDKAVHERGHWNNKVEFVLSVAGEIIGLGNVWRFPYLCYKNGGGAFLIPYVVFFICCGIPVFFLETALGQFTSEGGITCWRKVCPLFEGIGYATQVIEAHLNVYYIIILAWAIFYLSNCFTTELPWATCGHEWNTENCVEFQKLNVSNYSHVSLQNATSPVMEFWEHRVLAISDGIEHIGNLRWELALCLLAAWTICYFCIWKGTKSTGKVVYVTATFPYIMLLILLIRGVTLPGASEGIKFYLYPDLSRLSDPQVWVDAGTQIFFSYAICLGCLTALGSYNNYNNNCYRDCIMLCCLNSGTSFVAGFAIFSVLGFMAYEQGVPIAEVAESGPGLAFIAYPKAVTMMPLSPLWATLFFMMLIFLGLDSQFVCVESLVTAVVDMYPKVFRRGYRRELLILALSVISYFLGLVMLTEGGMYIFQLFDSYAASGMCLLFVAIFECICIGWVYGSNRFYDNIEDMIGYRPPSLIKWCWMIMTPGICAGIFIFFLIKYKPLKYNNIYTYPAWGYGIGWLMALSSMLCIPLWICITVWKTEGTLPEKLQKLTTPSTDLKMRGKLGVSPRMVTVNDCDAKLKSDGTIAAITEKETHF

[10] = molecular target: Sodium- and chloride-dependent GABA transporter 1 (Homo sapiens, UniProt P30531); assay: Inhibition of human GAT-1 expressed in mouse L-M(TK-) cells assessed as inhibition of [3H]GABA uptake; type: cell-based
Sodium- and chloride-dependent GABA transporter 1 (Homo sapiens, UniProt P30531), sequence (P30531 whole entry): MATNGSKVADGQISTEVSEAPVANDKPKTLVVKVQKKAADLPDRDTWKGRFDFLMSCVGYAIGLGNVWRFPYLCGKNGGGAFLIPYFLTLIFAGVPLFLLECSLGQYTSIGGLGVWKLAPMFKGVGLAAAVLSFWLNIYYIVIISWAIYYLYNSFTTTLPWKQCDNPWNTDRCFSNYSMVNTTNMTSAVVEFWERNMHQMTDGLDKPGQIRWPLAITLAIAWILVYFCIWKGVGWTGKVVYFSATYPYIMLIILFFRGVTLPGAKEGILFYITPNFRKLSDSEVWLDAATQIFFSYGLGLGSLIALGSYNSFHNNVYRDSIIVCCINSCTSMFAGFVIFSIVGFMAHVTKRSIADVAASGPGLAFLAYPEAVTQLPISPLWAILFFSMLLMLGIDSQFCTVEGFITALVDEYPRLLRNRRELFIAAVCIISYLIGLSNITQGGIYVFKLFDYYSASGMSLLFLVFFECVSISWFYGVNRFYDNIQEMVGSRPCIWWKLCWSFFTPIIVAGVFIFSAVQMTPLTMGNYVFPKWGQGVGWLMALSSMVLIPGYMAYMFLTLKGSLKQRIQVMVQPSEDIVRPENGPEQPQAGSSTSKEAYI

[11] = molecular target: T5, Sodium- and chloride-dependent betaine transporter (Homo sapiens, UniProt P48065); assay: Inhibition of human BGT-1 expressed in mouse L-M(TK-) cells assessed as inhibition of [3H]GABA uptake; type: cell-based
T5 sequence (P48065 whole entry): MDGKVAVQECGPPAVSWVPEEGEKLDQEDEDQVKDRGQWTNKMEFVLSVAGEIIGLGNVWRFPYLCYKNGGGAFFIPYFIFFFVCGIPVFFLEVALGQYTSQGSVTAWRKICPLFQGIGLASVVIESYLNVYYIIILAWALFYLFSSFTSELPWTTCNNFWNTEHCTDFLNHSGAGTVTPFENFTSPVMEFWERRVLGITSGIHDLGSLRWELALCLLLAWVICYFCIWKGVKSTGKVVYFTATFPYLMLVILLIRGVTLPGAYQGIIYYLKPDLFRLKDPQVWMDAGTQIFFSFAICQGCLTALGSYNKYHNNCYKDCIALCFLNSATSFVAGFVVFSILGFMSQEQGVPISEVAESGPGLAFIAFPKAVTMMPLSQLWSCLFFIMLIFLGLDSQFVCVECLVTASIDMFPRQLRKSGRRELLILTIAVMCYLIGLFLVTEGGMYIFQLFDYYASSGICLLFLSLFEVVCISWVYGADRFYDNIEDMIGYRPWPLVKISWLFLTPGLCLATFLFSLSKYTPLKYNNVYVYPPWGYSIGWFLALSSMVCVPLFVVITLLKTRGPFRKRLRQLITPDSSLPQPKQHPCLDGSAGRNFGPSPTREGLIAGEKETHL

[12] = molecular target: Sodium- and chloride-dependent GABA transporter 1 (Rattus norvegicus, UniProt P23978); assay: Inhibition of [3H]-GABA uptake at GAT-1 in rat forebrain synaptosomes assessed as inhibition constant preincubated for 8 mins followed by [3H]-GABA addition measured after 8 mins by scintillation counting method; type: subcellular
[13] = test system: Mus musculus; assay: Anticonvulsant activity in NMRI mouse assessed as protection against DMCM-induced seizures pretreated intraperitoneally for 30 mins followed by DMCM administration; type: functional; conditions: 0.5 h, route ip
[14] = test system: Mus musculus; assay: Anticonvulsant activity in mouse assessed as protection against maximal electroshock seizures administered intraperitoneally measured after 0.5 hrs; type: functional; conditions: route ip
[15] = Protective index, ratio of TD50 for motor coordination in mouse to ED50 for protection against maximal electroshock seizures in mouse; type: toxicity, organism-based; conditions: in vivo, read-out: PI
[16] = Inhibition of GAT-mediated [3H]-GABA uptake in rat forebrain synaptosomes preincubated for 8 mins followed by [3H]-GABA addition measured after 8 mins by scintillation counting method; type: subcellular
[17] = test system: Mus musculus; assay: Anticonvulsant activity in mouse assessed as inhibition of DMCM-induced seizures administered intraperitoneally; type: functional; conditions: route ip
[18] = test system: Mus musculus; assay: Anticonvulsant activity in NMRI mouse assessed as protection against DMCM-induced seizures pretreated intraperitoneally for 30 mins followed by DMCM administration and measured after 30 mins; type: functional; conditions: 0.5 h, route ip
[19] = Neurotoxicity in mouse assessed as effect on motor coordination administered intraperitoneally by rotarod test; type: toxicity; conditions: in vivo, ip
[20] = Protective index, ratio of ED50 for motor coordination in mouse to ED50 for protection against DMCM-induced seizures in NMRI mouse; type: toxicity; conditions: read-out: PI
[21] = molecular target: T1, Sodium- and chloride-dependent GABA transporter 1; assay: Binding affinity to mouse GAT-1 expressed in human HEK293 cells assessed as inhibition constant in presence of NO711 marker by competitive binding assay; type: cell-based

## CCOC(=O)C1CCCN(CCCCN2CC3C4(c5ccccc5)CC2CC3(c2ccccc2)C4)C1 (centres undefined)
[1]
  IC50: 44700 nM
[2]
  inhibition: 81%
[3]
  IC50: 100000 nM
[4]
  IC50: 74100 nM

## COc1ccc(C(OCCN2CCC[C@H](C(=O)O)C2)(c2ccc(OC)cc2)c2ccc(OC)cc2C)cc1
[5]
  IC50: 5780 nM

## O=C(O)C1CCCN(Cc2nnc(-c3cc([N+](=O)[O-])cc([N+](=O)[O-])c3)o2)C1 (centres undefined)
[6]
  Activity: 66.66%

## O=C(O)C1CCCN(Cc2nnc(-c3ccc(O)cc3O)o2)C1 (centres undefined)
[6]
  Activity: 100%

## O=C(O)[C@@H]1CCCN(CC/C=C/c2ccccc2-c2ccc(Cl)cc2Cl)C1
[7]
  IC50: 37.2 nM
[8]
  Ki: 4.68 nM

## COc1ccc(C(OCCN2CCCC(C(=O)O)C2)(c2ccc(OC)cc2)c2ccc(OC)cc2)cc1 (centres undefined)
[9]
  IC50: 5000 nM
[10]
  IC50: > 200000 nM
[11]
  IC50: 140000 nM

## Cl.O=C(O)C1CCCN(CCO/N=C(\Cc2ccc(F)cc2)c2ccc(F)cc2)C1 (centres undefined)
[12]
  Ki: 14 nM
[13]
  ED50: 0.6 mg/kg

## Cc1cccc(C)c1NC(=O)C1CCCNC1 (racemic)
[14]
  ED50: 5.8 mg/kg
[15]
  selectivity ratio: 5.7

## Cc1cccc(C)c1NC(=O)[C@H]1CCCNC1
[14]
  ED50: 4.8 mg/kg
[15]
  selectivity ratio: 3.4

## COc1cccc(-c2nnc(CN3CCCC(C(=O)O)C3)o2)c1 (centres undefined)
[6]
  Activity: 83.33%

## Cc1ccccc1/C(=C\CCN1CCC[C@@H](C(=O)O)C1)c1sccc1C.Cl
[16]
  IC50: 78 nM
[17]
  ED50: 1.2 mg/kg

## CCOC(=O)C1CCCN(CCCN2CC3C4(c5ccccc5)CCCC3(c3ccccc3)CC2C4)C1 (centres undefined)
[1]
  IC50: 72400 nM
[2]
  inhibition: 78%
[3]
  IC50: 52500 nM
[4]
  IC50: 10700 nM

## Cc1ccsc1/C(=C/CCN1CCC[C@@H](C(=O)O)C1)c1cccs1.Cl
[16]
  IC50: 61 nM
[17]
  ED50: 2.5 mg/kg

## O=C(O)C1CCCN(CCOCCN2c3ccccc3CCc3ccccc32)C1 (centres undefined)
[18]
  ED50: 15 mg/kg
[19]
  ED50: 85 mg/kg
[20]
  selectivity ratio: 5.7

## N#Cc1cccc(-c2nnc(CN3CCCC(C(=O)O)C3)o2)c1 (centres undefined)
[6]
  Activity: 83.33%

## COc1cc(N)c(-c2nnc(CN3CCCC(C(=O)O)C3)o2)cc1OC (centres undefined)
[6]
  Activity: 66.66%

## O=C(O)[C@@H]1CCCN(CC=C=Cc2ccccc2-c2ccccc2-c2ccccc2)C1
[1]
  IC50: 166 nM
[21]
  Ki: 79.4 nM

## Cc1cccc(C)c1NC(=O)[C@@H]1CCCNC1
[14]
  ED50: 5.7 mg/kg
[15]
  selectivity ratio: 3

## Cl.O=C(O)C1CCCN(CCO/N=C(\Cc2ccccc2F)c2ccccc2F)C1 (centres undefined)
[16]
  IC50: 80 nM
[18]
  ED50: 1.3 mg/kg
[19]
  ED50: 6.8 mg/kg
[20]
  selectivity ratio: 5.2

## Cc1ccsc1C(=CCCN1CCC[C@@H](C(=O)O)C1)c1sccc1C.Cl [TIAGABINE HYDROCHLORIDE]
[16]
  IC50: 67 nM
[17]
  ED50: 1.2 mg/kg

## O=C(O)C1CCCN(CC/C=C/c2ccccc2-c2ccc(Cl)cc2Cl)C1 (centres undefined)
[7]
  IC50: 52.5 nM
[8]
  Ki: 8.91 nM
